In patent US8834855B2, “Sunscreen compositions comprising carotenoids” (Promar AS, priority 2005, dated 2014):

Experiments:
[1] = Effects of temperature on extraction for 200 minutes, water:ethanol:heptane 1:1:1, pH 11; assay type: physicochemical; conditions: for amount in phase after extraction: 1:1:1, pH 11
[2] = Phase distribution of carotenoids in water-ethanol/heptane extraction at different water levels; assay type: physicochemical; conditions: room temperature, no pH adjustment
Method: (§1) Extraction is performed in a nitrogen atmosphere in equipment covered with aluminium foil. • 1. The pH of a water suspension of the microalgae P. tricornutum (14 g dry weight per liter of water) was adjusted to 8.3 and ethanol was added to a final ratio of water:ethanol=0.3:1.0. • 2. The water-ethanol solution was extracted by mixing with heptane (water-ethanol solution:heptane=1.3:1.0) for 1 hour at 20° C. • 3. The solution was separated into three phases by centrifugation (10 minutes at 3222×g): An upper heptane phase enriched in diadinoxanthin and fucoxanthin, a lower ethanol-water phase enriched in chlorophylls and degradation products of chlorophylls, and a third mid-phase with precipitated materials. The ratio of the concentration of diadinoxanthin to fucoxanthin in the water-ethanol phase was approximately 1:6. • 4. Water was added to the water-ethanol phase until a water:ethanol ratio of 0.7:1.0 was reached. This solution was extracted by a similar amount of heptane and the phases separated by centrifugation (as in step 3). Diadinoxanthin was enriched in the heptane phase (diadinoxanthin:fucoxanthin=1:1), and fucoxanthin and fucoxanthin-derivatives in the ethanol-water phase. • 5. The heptane phase was stored overnight at −20° C. to separate fucoxanthin which was separated by centrifugation as described above. (Alternatively, the precipitated material may be removed with a pipette.) • 6. The heptane phase was used for further purification of diadinoxanthin by HPLC as described hereinbefore to yield […] of the diadinoxanthin found in the starting material. Optimization
Various parameters in the above described basic method were varied to establish the effect of water concentration, pH and temperature on the isolation method.
The method was performed at room temperature without pH adjustment.

[3] = Recovery of initial amount after extraction at different temperature and pH (stability); assay type: physicochemical
Excerpt: (§2) Values indicated are for the amount of each compound in the indicated phase. The value in brackets indicates the % distribution between the two phases.

[4] = Irradiation absorption in an in vitro skin model (Vitro-skin, integrating sphere transmission); conditions: Miglyol solvent, compared to a conventional SPF 60 sun lotion
Method: A commercial sunscreen SPF60 was used for comparison. Vitro−skin+miglyol was used as the control. Curve 1: Vitro−skin+Miglyol, 2: SPF60, 3:fucoxanthin at 2.76 mg/ml, 4:fucoxanthin at 0.55 mg/ml, 5:fucoxanthin at 0.25 mg/ml, 6:diadinoxanthin at 0.64 mg/ml, 7:diadinoxanthin at 0.13 mg/ml; and
The concentrations are given as the sum of the given compounds and their degradation products (cis-fucoxanthin and diadinochrome). Solid lines with squares—diadinoxanthin. Solid line with diamonds—fucoxanthin. Dashed lines illustrate a projected linear relationship.
The in vitro method of Springsteen was used (Springsteen et al., 1999, Analytica Chimica Acta, 380, p155-164). Vitro-skin was used as the skin simulator and Miglyol (Miglyol 812F Neutraloel CHG. 040906) was used as the solvent. The tests were performed with a Varian Cary 300 Conc UV-Visible Spectrophotometer (with an integrating sphere). Fucoxanthin and diadinoxanthin (isolated as described in Example 2) were tested at the concentrations indicated on FIG. 3.

[5] = Effects of temperature and pH on separation of diadinoxanthin from fucoxanthin (water:ethanol phase extracted with heptane); assay type: physicochemical
Method: as §1, §2

[6] = water:EtOH:heptane 0:1:1, heptane phase
[7] = water:EtOH:heptane 0:1:1, water-EtOH phase
[8] = water:EtOH:heptane 0.1:1:1, heptane phase
[9] = water:EtOH:heptane 0.1:1:1, water-EtOH phase
[10] = water:EtOH:heptane 0.2:1:1, heptane phase
[11] = water:EtOH:heptane 0.2:1:1, water-EtOH phase
[12] = water:EtOH:heptane 0.4:1:1, heptane phase
[13] = water:EtOH:heptane 0.4:1:1, water-EtOH phase
[14] = NaOH-buffer, pH 12.2, 50° C., Heptane phase
[15] = NaOH-buffer, pH 12.2, 50° C., Water-EtOH phase
[16] = Phosphate, pH 11, 20° C., Heptane phase
[17] = Phosphate, pH 11, 20° C., Water-EtOH phase
[18] = Phosphate, pH 11, 50° C., Heptane phase
[19] = Phosphate, pH 11, 50° C., Water-EtOH phase

Structure (SMILES)	amount in phase after extraction ([1]; 20 °C, Heptane phase)	amount in phase after extraction ([1]; 20 °C, Water-EtOH phase)	amount in phase after extraction ([1]; 35 °C, Heptane phase)	amount in phase after extraction ([1]; 35 °C, Water-EtOH phase)	amount in phase after extraction ([1]; 50 °C, Heptane phase)	amount in phase after extraction ([1]; 50 °C, Water-EtOH phase)	phase distribution [2, 6]	phase distribution [2, 7]	phase distribution [2, 8]	phase distribution [2, 9]	phase distribution [2, 10]	phase distribution [2, 11]	phase distribution [2, 12]	phase distribution [2, 13]	Total present in both phases ([3]; NaOH-buffer, pH 12.2, 50° C.)	Total present in both phases ([3]; Phosphate, pH 11, 20° C.)	Total present in both phases ([3]; Phosphate, pH 11, 50° C.)	ability to absorb irradiation [4]	% distribution between the two phases [5, 14]	amount of compound in phase [5, 14]	other results
C=Cc1c(C)c2cc3nc(c4c5[n-]c(cc6nc(cc1[n-]2)C(C)=C6CC)c(C)c5C(=O)[C@@H]4C(=O)OC)[C@@H](CCC(=O)OC/C=C(\C)CCC[C@H](C)CCC[C@H](C)CCCC(C)C)[C@@H]3C.[Mg+2] [Chl a, chlorophyll a]	3290	0	3505	0	4010	0	45%	55%	100%	0%	93%	7%	100%	0%	–	–	–	–	–	–	–
CC1=C(C#C/C(C)=C/C=C/C(C)=C/C=C/C=C(C)/C=C/C=C(C)/C=C/[C@@]23O[C@]2(C)C[C@@H](O)CC3(C)C)C(C)(C)C[C@H](O)C1 [diadinoxanthin]	1155	170	1260	180	1310	190	12%	88%	93%	7%	6%	94%	22%	78%	1440	1500	1470	ability to absorb irradiation, particularly in the blue light range of the spectrum, but also in the upper UVA area	100%	1440	stability under the temperature and pH conditions used ([3]; pH 11): stable under the conditions used; % distribution between the two phases [5, 15]: 0 (0%); amount of compound in phase [5, 15]: 0 (0%); % distribution between the two phases [5, 16]: 100%; amount of compound in phase [5, 16]: 1500; % distribution between the two phases [5, 17]: 0 (0%); amount of compound in phase [5, 17]: 0 (0%); % distribution between the two phases [5, 18]: 100%; amount of compound in phase [5, 18]: 1470; % distribution between the two phases [5, 19]: 0 (0%); amount of compound in phase [5, 19]: 0 (0%)
CC(=O)O[C@H]1CC(C)(C)C(=C=C/C(C)=C/C=C/C(C)=C/C=C/C=C(C)/C=C/C=C(\C)C(=O)C[C@@]23O[C@]2(C)C[C@@H](O)CC3(C)C)[C@](C)(O)C1 [fucoxanthin]	1065	380	610	210	95	0	7%	93%	49%	51%	2%	98%	3%	97%	0	5120	2880	ability to absorb irradiation, particularly in the blue light range of the spectrum, but also in the upper UVA area	0 (0%)	0 (0%)	stability under the temperature and pH conditions used ([3]; pH 11 to 12.2, 20 to 50° C.): more sensitive to extreme temperatures and pH; stability at various temperatures ([1]; 20, 35, 50 °C, pH 11): more sensitive to higher temperatures; % distribution between the two phases [5, 15]: 0 (0%); amount of compound in phase [5, 15]: 0 (0%); % distribution between the two phases [5, 16]: 95%; amount of compound in phase [5, 16]: 4860; % distribution between the two phases [5, 17]: 5%; amount of compound in phase [5, 17]: 260; % distribution between the two phases [5, 18]: 95%; amount of compound in phase [5, 18]: 2745; % distribution between the two phases [5, 19]: 5%; amount of compound in phase [5, 19]: 135
